Results: BigSolDB 2.1

Row | Structure (SMILES) | solubility (mole fraction) (in 1,4-dioxane, 298.15 K) | solubility (mole fraction) (in 1,4-dioxane, 303.15 K) | solubility (mole fraction) (in 1,4-dioxane, 308.15 K) | solubility (mole fraction) (in 1,4-dioxane, 313.15 K) | solubility (mole fraction) (in 1,4-dioxane, 318.15 K) | solubility (mole fraction) (in DMF, 298.15 K) | solubility (mole fraction) (in DMF, 303.15 K) | solubility (mole fraction) (in DMF, 308.15 K) | solubility (mole fraction) (in DMF, 313.15 K) | solubility (mole fraction) (in DMF, 318.15 K)
1 | O=C(/C=C/c1ccc(-c2cccc([N+](=O)[O-])c2)o1)c1ccc2ccc(=O)oc2c1 | 0.00617 | 0.00623 | 0.00622 | 0.00624 | 0.00628 | 0.00696 | 0.007 | 0.0071 | 0.0072 | 0.00721
2 | COc1ccc(C(=O)/C=C/c2ccc(-c3cccc([N+](=O)[O-])c3)o2)cc1 | 0.00732 | 0.00733 | 0.00737 | 0.00742 | 0.00744 | 0.0112 | 0.0112 | 0.0113 | 0.0113 | 0.0114
3 | O=C(/C=C/c1ccc(-c2cccc([N+](=O)[O-])c2)o1)CO | 0.00705 | 0.00707 | 0.0071 | 0.00711 | 0.00714 | 0.0094 | 0.00945 | 0.0095 | 0.0095 | 0.00959
4 | O=C(/C=C/c1ccc(-c2cccc([N+](=O)[O-])c2)o1)c1ccc(Br)cc1 | 0.00489 | 0.00491 | 0.00495 | 0.00501 | 0.00501 | 0.00705 | 0.0071 | 0.00714 | 0.00722 | 0.00726
5 | O=C(/C=C/c1ccc(-c2cccc([N+](=O)[O-])c2)o1)c1ccc([N+](=O)[O-])cc1 | 0.00229 | 0.00232 | 0.00239 | 0.00241 | 0.00245 | 0.00237 | 0.0024 | 0.00244 | 0.00245 | 0.00248
6 | O=C(/C=C/c1ccc(-c2cccc([N+](=O)[O-])c2)o1)c1ccc(Cl)cc1 | 0.00271 | 0.00272 | 0.00277 | 0.00282 | 0.00284 | 0.0045 | 0.0046 | 0.00468 | 0.0047 | 0.0048
7 | O=C(/C=C/c1ccc(-c2cccc([N+](=O)[O-])c2)o1)c1ccc(O)cc1 | 0.00573 | 0.0058 | 0.00581 | 0.00591 | 0.00592 | 0.00665 | 0.0067 | 0.00675 | 0.0068 | 0.00692
8 | O=C(/C=C/c1ccc(-c2cccc([N+](=O)[O-])c2)o1)c1ccccc1 | 0.00553 | 0.0056 | 0.00565 | 0.00571 | 0.00573 | 0.00983 | 0.0099 | 0.00998 | 0.0101 | 0.0101
9 | O=C(/C=C/c1ccc(-c2cccc([N+](=O)[O-])c2)o1)c1cccc([N+](=O)[O-])c1 | 0.00596 | 0.00601 | 0.00602 | 0.00605 | 0.00608 | 0.00604 | 0.0061 | 0.00614 | 0.0062 | 0.0062
10 | Nc1ccc(C(=O)/C=C/c2ccc(-c3cccc([N+](=O)[O-])c3)o2)cc1 | 0.00245 | 0.00248 | 0.0025 | 0.00252 | 0.00255 | 0.00264 | 0.00264 | 0.00264 | 0.00264 | 0.00264
